This is an account of results in patent publication US20070077215A1, “Administration of phenylfurymethylthiazolidine-2,4-dione or phenylthienymethylthiazolidine-2,4-dione compounds for promoting and/or inducing and/or stimulating the pigmentation of keratinous substances and/or limiting their depigmentation and/or their whitening” (L'OREAL, priority 2005, published 2007).

The structures appear in SMILES notation.

This assay addresses T1, Type-1 15-PGDH (Homo sapiens, UniProt P15428).
T1 construct: made in house
T1 sequence (P15428 1-266): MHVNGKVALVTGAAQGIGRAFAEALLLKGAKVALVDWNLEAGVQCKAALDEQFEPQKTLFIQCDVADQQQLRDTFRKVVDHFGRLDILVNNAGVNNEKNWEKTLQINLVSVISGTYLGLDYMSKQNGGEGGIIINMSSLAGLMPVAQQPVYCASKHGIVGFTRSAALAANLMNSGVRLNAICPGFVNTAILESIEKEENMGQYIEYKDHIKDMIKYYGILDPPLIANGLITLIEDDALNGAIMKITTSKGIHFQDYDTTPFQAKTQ
The assay is described as follows: Test on type-1 15-PGDH (spectrophotometric enzyme inhibition). It is filed as biochemical. To be noted: Tris buffer pH 7.4, 1.5 mM β-NAD, 50 μM prostaglandin E2, 37° C., 340 nm; read-out: IC50dh (concentration that reduces the enzymatic activity of 15-PGDH by 50%). The procedure: The enzyme 15-PGDH is obtained as disclosed in FR 02/05067, assigned to the assignee hereof, in suspension in a medium adjusted to a concentration of 0.3 mg/ml and then blocked at −80° C. For the requirements of the test, this suspension is defrosted and stored in ice.
Furthermore, a 100 mM, pH=7.4, Tris buffer comprising 0.1 mM of dithiothreitol (D5545, Sigma-Aldrich, L'isle D'Abeau Chesne, BP 701, 38297, Saint Quentin Fallavier) 1.5 mM of β-NAD (N6522, Sigma-Aldrich, L'isle D'Abeau Chesne, BP 701, 38297, Saint Quentin Fallavier) and 50 μM of prostaglandin E2 (P4172, Sigma-Aldrich, L'isle D'Abeau Chesne, BP 701, 38297, Saint Quentin Fallavier) is prepared.
0.965 ml of this buffer (adjusted beforehand to 37° C.) is introduced into the cell of a spectrophotometer (Perkin-Elmer, Lambda 2) thermostatically controlled at 37° C., the measuring wavelength of which is adjusted to 340 nm. 0.035 ml of enzymatic suspension at 37° C. is introduced into the cell concomitantly with the recording (corresponding to an increase in the optical density at 340 nm). The maximum reaction rate is recorded.
The test values (comprising compound 1) are compared with the control value (without compound 1); the results shown represent either the percentage of inhibition of the enzymatic activity of 15-PGDH for a given concentration of compound of formula (I) or the concentration at which compound 1 reduces the enzymatic activity of 15-PGDH by 50%, namely IC50dh.

Turning to `O=C1N=C(O)C(Cc2ccc(-c3ccc(C(=O)O)cc3)o2)S1` (stereo not drawn) [Compound 1, 4-{5-[(2,4-dioxo-1,3-thiazolidin-5-yl)methyl]-2-furyl}benzoic acid], the IC50 is 3 µM.
Then `O=C1NC(=O)C(Cc2ccc(-c3cccc(C(F)(F)F)c3)o2)S1` (stereo not drawn) [Compound 2, 5-[5-(3-(trifluoromethyl)phenyl)fur-2-ylmethyl]-1,3-thiazolidine-2,4-dione], with 8.2 µM; and `O=C1NC(=O)C(Cc2ccc(-c3cccc(Cl)c3)o2)S1` (stereo not drawn) [Compound 3, 5-{[5-(3-chlorophenyl)-2-furyl]methyl}-1,3-thiazolidine-2,4-dione], with 5.2 µM.
Then `CCOC(=O)c1cccc(-c2ccc(CC3SC(=O)NC3=O)o2)c1` (stereo not drawn) [Compound 4, Ethyl 3-{5-[(2,4-dioxo-1,3-thiazolidin-5-yl)methyl]-2-furyl}benzoate], with 4.6 µM; and `O=C1NC(=O)C(Cc2ccc(-c3ccc(C(F)(F)F)cc3)s2)S1` (stereo not drawn) [Compound 5, 5-({5-[4-(trifluoromethyl)phenyl]thien-2-yl}methyl)-1,3-thiazolidine-2,4-dione], with 17.7 µM.
Turning to `O=C1NC(=O)C(Cc2ccc(-c3cccc(CO)c3)s2)S1` (stereo not drawn) [Compound 7, 5-({5-[3-(Hydroxymethyl)phenyl]-2-thienyl}methyl)-1,3-thiazolidine-2,4-dione], the IC50 stood at 37.6 µM.
